Experimental data as given in PubChem BioAssay AID2060498 (Molecular Pharmacology Branch, DTP, NCI, 2025).

Tested on: 171881-019-R-J1-PDC tumor spheroids, viability
Assay: Anticancer human tumor 171881-019-R-J1-PDC patient-derived invasive breast carcinoma cell line growth inhibition [GQUAD]
Details: spheroids with HUVEC and MSC; for IC50: curve of first compound; for viability, T/C: stronger effect = lower value
Outline: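 Multi-cell-type spheroids of tumor cells with HUVEC and mesenchymal stem cells, treated with drug combinations. Concentrations descend in half-log steps from near clinical Cmax, or from 10 microM where Cmax is unknown; viability read-out.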

[1] = second compound 0.0316 µM, first compound 0.0316 µM
[2] = second compound 0.0316 µM, first compound 0.1 µM
[3] = second compound 0.0316 µM, first compound 0.316 µM
[4] = second compound 0.0316 µM, first compound 1 µM
[5] = second compound 0.0316 µM, first compound 3.16 µM
[6] = second compound 0.0316 µM, first compound 10 µM
[7] = second compound 0.1 µM, first compound 0.0316 µM
[8] = second compound 0.1 µM, first compound 0.1 µM
[9] = second compound 0.1 µM, first compound 0.316 µM
[10] = second compound 0.1 µM, first compound 1 µM
[11] = second compound 0.1 µM, first compound 3.16 µM
[12] = second compound 0.1 µM, first compound 10 µM
[13] = second compound 0.316 µM, first compound 0.0316 µM
[14] = second compound 0.316 µM, first compound 0.1 µM
[15] = second compound 0.316 µM, first compound 0.316 µM
[16] = second compound 0.316 µM, first compound 1 µM
[17] = second compound 0.316 µM, first compound 3.16 µM
[18] = second compound 0.316 µM, first compound 10 µM
[19] = second compound 1 µM, first compound 0.0316 µM
[20] = second compound 1 µM, first compound 0.1 µM
[21] = second compound 1 µM, first compound 0.316 µM
[22] = second compound 1 µM, first compound 1 µM
[23] = second compound 1 µM, first compound 3.16 µM
[24] = second compound 1 µM, first compound 10 µM
[25] = second compound 3.16 µM, first compound 0.0316 µM
[26] = second compound 3.16 µM, first compound 0.1 µM
[27] = second compound 3.16 µM, first compound 0.316 µM
[28] = second compound 3.16 µM, first compound 1 µM
[29] = second compound 3.16 µM, first compound 3.16 µM
[30] = second compound 3.16 µM, first compound 10 µM
[31] = second compound 10 µM, first compound 0.0316 µM
[32] = second compound 10 µM, first compound 0.1 µM
[33] = second compound 10 µM, first compound 0.316 µM
[34] = second compound 10 µM, first compound 1 µM
[35] = second compound 10 µM, first compound 3.16 µM
[36] = second compound 10 µM, first compound 10 µM
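Further: spheroids exposed to compounds for 7 days.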
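Wherever viability, T/C is given: 100% = DMSO vehicle control viability.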

SMILES: COc1cccc2c1C(=O)c1c(O)c3c(c(O)c1C2=O)CC(O)(C(=O)CO)CC3OC1CC(N)C(O)C(C)O1 (stereo unspecified) + CN(C)c1ccc(Nc2c3ccc(NC(=O)CCN4CCCC4)cc3nc3cc(NC(=O)CCN4CCCC4)ccc23)cc1
- IC50 (second compound 0.0316 µM): 261 nM
- IC50 (second compound 0.1 µM): 263 nM
- IC50 (second compound 0.316 µM): 229 nM
- IC50 (second compound 1 µM): < 31.6 nM
- IC50 (second compound 3.16 µM): < 31.6 nM
- IC50 (second compound 10 µM): < 31.6 nM
- viability, T/C [1]: 93.9%
- viability, T/C [2]: 66.6%
- viability, T/C [3]: 51.4%
- viability, T/C [4]: 19.9%
- viability, T/C [5]: 0.2%
- viability, T/C [6]: 0.24%
- viability, T/C [7]: 109%
- viability, T/C [8]: 68.2%
- viability, T/C [9]: 54.4%
- viability, T/C [10]: 20.2%
- viability, T/C [11]: 0.28%
- viability, T/C [12]: 0.36%
- viability, T/C [13]: 70.2%
- viability, T/C [14]: 55.2%
- viability, T/C [15]: 47.6%
- viability, T/C [16]: 10.7%
- viability, T/C [17]: 0.27%
- viability, T/C [18]: 0.33%
- viability, T/C [19]: 11.5%
- viability, T/C [20]: 11.2%
- viability, T/C [21]: 7.77%
- viability, T/C [22]: 2.02%
- viability, T/C [23]: 0.44%
- viability, T/C [24]: 0.64%
- viability, T/C [25]: 1.52%
- viability, T/C [26]: 2.29%
- viability, T/C [27]: 1.63%
- viability, T/C [28]: 0.4%
- viability, T/C [29]: 0.14%
- viability, T/C [30]: 0.51%
- viability, T/C [31]: 0.38%
- viability, T/C [32]: 0.25%
- viability, T/C [33]: 0.32%
- viability, T/C [34]: 0.18%
- viability, T/C [35]: 0.29%
- viability, T/C [36]: 0.26%

SMILES: Nc1ccn(C2OC(CO)C(O)C2(F)F)c(=O)n1 (stereo unspecified) + CN(C)c1ccc(Nc2c3ccc(NC(=O)CCN4CCCC4)cc3nc3cc(NC(=O)CCN4CCCC4)ccc23)cc1
- IC50 (second compound 0.0316 µM): < 31.6 nM
- IC50 (second compound 0.1 µM): < 31.6 nM
- IC50 (second compound 0.316 µM): < 31.6 nM
- IC50 (second compound 1 µM): < 31.6 nM
- IC50 (second compound 3.16 µM): < 31.6 nM
- IC50 (second compound 10 µM): < 31.6 nM
- viability, T/C [1]: 35.4%
- viability, T/C [2]: 35.6%
- viability, T/C [3]: 44.6%
- viability, T/C [4]: 51%
- viability, T/C [5]: 45.9%
- viability, T/C [6]: 47.7%
- viability, T/C [7]: 33.7%
- viability, T/C [8]: 38%
- viability, T/C [9]: 46.6%
- viability, T/C [10]: 53%
- viability, T/C [11]: 45.6%
- viability, T/C [12]: 46%
- viability, T/C [13]: 33%
- viability, T/C [14]: 36%
- viability, T/C [15]: 39.9%
- viability, T/C [16]: 38.5%
- viability, T/C [17]: 47.2%
- viability, T/C [18]: 38.4%
- viability, T/C [19]: 12.5%
- viability, T/C [20]: 8.63%
- viability, T/C [21]: 13.7%
- viability, T/C [22]: 11.8%
- viability, T/C [23]: 15%
- viability, T/C [24]: 16.6%
- viability, T/C [25]: 2.29%
- viability, T/C [26]: 1.62%
- viability, T/C [27]: 2.47%
- viability, T/C [28]: 1.2%
- viability, T/C [29]: 2.41%
- viability, T/C [30]: 2.49%
- viability, T/C [31]: 0.27%
- viability, T/C [32]: 0.9%
- viability, T/C [33]: 0.82%
- viability, T/C [34]: 0.47%
- viability, T/C [35]: 1.36%
- viability, T/C [36]: 0.37%

SMILES: O=c1[nH]cc(F)c(=O)[nH]1 + CN(C)c1ccc(Nc2c3ccc(NC(=O)CCN4CCCC4)cc3nc3cc(NC(=O)CCN4CCCC4)ccc23)cc1
- IC50 (second compound 0.0316 µM): > 10000 nM
- IC50 (second compound 0.1 µM): > 10000 nM
- IC50 (second compound 0.316 µM): 9940 nM
- IC50 (second compound 1 µM): < 31.6 nM
- IC50 (second compound 3.16 µM): < 31.6 nM
- IC50 (second compound 10 µM): < 31.6 nM
- viability, T/C [1]: 84%
- viability, T/C [2]: 79.3%
- viability, T/C [3]: 75.2%
- viability, T/C [4]: 69.5%
- viability, T/C [5]: 62.9%
- viability, T/C [6]: 63.9%
- viability, T/C [7]: 79.7%
- viability, T/C [8]: 72.9%
- viability, T/C [9]: 73.4%
- viability, T/C [10]: 69.1%
- viability, T/C [11]: 65.7%
- viability, T/C [12]: 61.6%
- viability, T/C [13]: 70.5%
- viability, T/C [14]: 69.4%
- viability, T/C [15]: 69.5%
- viability, T/C [16]: 55.4%
- viability, T/C [17]: 58%
- viability, T/C [18]: 49.9%
- viability, T/C [19]: 14.9%
- viability, T/C [20]: 11.1%
- viability, T/C [21]: 17%
- viability, T/C [22]: 12.6%
- viability, T/C [23]: 13.4%
- viability, T/C [24]: 15.8%
- viability, T/C [25]: 2.15%
- viability, T/C [26]: 1.36%
- viability, T/C [27]: 2.04%
- viability, T/C [28]: 2.2%
- viability, T/C [29]: 2.62%
- viability, T/C [30]: 2.05%
- viability, T/C [31]: 0.33%
- viability, T/C [32]: 0.41%
- viability, T/C [33]: 0.8%
- viability, T/C [34]: 0.38%
- viability, T/C [35]: 0.5%
- viability, T/C [36]: 0.29%
